Measured values from article PMC9963438, “Emerging Effects of Resveratrol Derivatives in Cells Involved in Oral Wound Healing: A Preliminary Study” (International Journal of Molecular Sciences, 2023).

Key:
[1] = system: human gingival fibroblasts (HGFs); assay: MTT cytocompatibility screening on HGFs, 24 h; assay type: cell-based; conditions: for HGFs metabolic activity / cell viability (MTT): 10 µM, vs control (DMSO) and RSV; for HGFs cell viability (MTT): vs control and RSV
[2] = system: eNOS mRNA in HUVECs; assay: RT-qPCR of eNOS in HUVECs; assay type: cell-based, human; conditions: RSV 10 µM, 48 and 72 h, time-dependent manner
Experimental: Total RNA was isolated using Trifast reagent (EuroClone) according to the manufacturer instructions from 3 × 10^5 cells/well treated with increasing concentrations of 1d and 1h for 48 h and 72 h. Complementary DNA (cDNA) was obtained using GoTaq® 2 Step RT-qPCR Kit (Promega, Madison, WI, USA) in accordance with the manufacturer’s instructions. RT-qPCR was carried out using SYBR Green (Promega) on the Quant Studio 7 Pro Real-Time PCR System (ThermoFisher, Waltham, MA, USA). The results were normalized to glyceraldehyde 3-phoshate dehydrogenase (GAPDH) for HUVECs and HGFs and to β-actin (βACT) for HOBs using the 2^−ΔΔCt method.

[3] = system: HGFs; assay: Toluidine blue staining, morphology and confluence of HGFs; assay type: cell-based, human; conditions: 72 h; 1d and 1h 5 µM, RSV 10 µM
Experimental: The influence of 1d and 1h was evaluated on cells density and morphology by toluidine-blue staining. A total of 2 × 10^4 cells/well were cultured in 24-well plates and were incubated at 37 °C and 5% CO2 with tested compounds at 5 µM. After 48 and 72 h, adherent cells were fixed with 70% cold ethanol and stained with 1% toluidine blue and 1% borax (Sigma Aldrich, St. Louis, MO, USA). Cells were then observed by an inverted microscope connected with a camera at 40×, 100×, and 200× magnifications (Leica, Wild Heer-brugg, Wetzlar, Germany).

Row | Structure (SMILES) | HGFs metabolic activity / cell viability (MTT) [1] | HGFs cell viability (MTT) ([1]; 50 µM) | HGFs cell viability (MTT) ([1]; 20 µM) | eNOS mRNA expression [2] | HGFs morphology [3]
1 | Cc1ccc(S(=O)(=O)Nc2ccc(/C=C/c3ccccc3)cc2)cc1[N+](=O)[O-] [1c] | did not show any significant difference | statistically reduce HGF viability | – | – | –
2 | O=S(=O)(Cc1ccccc1)Nc1ccc(/C=C/c2ccccc2)cc1 [1i] | did not show any significant difference | statistically reduce HGF viability | statistically significant reduction in cell viability | – | –
3 | COc1cc(OC)cc(S(=O)(=O)Nc2ccc(/C=C/c3ccccc3)cc2)c1 [1f] | significantly decreased the HGFs metabolic activity | statistically reduce HGF viability | – | – | –
4 | O=S(=O)(Nc1ccc(/C=C/c2ccccc2)cc1)c1ccccc1 [1a] | did not show any significant difference | no statistically significant differences | slight increase in HGF viability | – | –
5 | N#Cc1ccc(S(=O)(=O)Nc2ccc(/C=C/c3ccccc3)cc2)cc1 [1e] | significantly decreased the HGFs metabolic activity | statistically reduce HGF viability | statistically significant reduction in cell viability | – | –
6 | O=[N+]([O-])c1cccc(S(=O)(=O)Nc2ccc(/C=C/c3ccccc3)cc2)c1 [1b] | significantly decreased the HGFs metabolic activity | statistically reduce HGF viability | – | – | –
7 | Oc1ccc(/C=C/c2cc(O)cc(O)c2)cc1 [RSV, trans-3,5,4′-trihydroxystilbene, reference compound] | – | – | – | induced eNOS mRNA expression | appeared as irregular triangles, polygons, and other shapes
8 | CS(=O)(=O)Nc1ccc(/C=C/c2ccccc2)cc1 [1g] | significantly decreased the HGFs metabolic activity | statistically reduce HGF viability | statistically significant reduction in cell viability | – | –
